Measurements from patent publication US20040014814A1, “Compositions and methods for delaying preventing rejuvenating or reversing senescence in cells” (priority 2000, published 2004).

Columns and labels:
[1] = Fate of compound after cellular uptake; type: cell-based; details: compared with carnosine
Method: Experiments were conducted to determine the fate of acetyl-carnosine and carnosine after cellular uptake. […] A slower metabolism and incorporation into other proteins may be one reason for acetyl-carnosine having higher effective intracellular concentrations compared with carnosine despite its lower overall uptake.

Anti-oxidant activity = type: biochemical; details: parent compound = carnosine
MRC-5 cells [2] = assay: Uptake of radio-labeled (3H) compounds by MRC-5 fibroblast cells; details: after 48 hours
Method: For MRC-5 cells, (3H)—carnosine and acetyl carnosine were added to the medium of near confluent 60mm culture dishes. At different time points cells were washed three times with phosphate buffered saline, cells harvested and cell-associated radioactivity determined using Packard Starscint scintillation fluid.
The rate of uptake of carnosine and acetyl-carnosine by MRC-5 cells was studied using radio-labeled tritiated (3H) carnosine and acetyl-carnosine compounds. The uptake was measured in MRC-5 cells at passage 28 over a 48 hour period (FIG. 3A).

p16^INK4/CDKN2 = assay: Immunohistochemical staining of p16 in MRC-5 cell nuclei; type: cell-based, human; details: senescent cells, old media replaced with supplemented media, after a few days
Method: Senescent cells treated with acetyl-carnosine acquire a younger phenotype and no longer express p16 (C). Cells were stained from passage 30 until senescence was reached (approximately passage 65) in order to determine the effectiveness of p16 as a reliable biomarker.
Tissue culture cells were fixed by slowly infusing 4% paraformaldehyde in 0.1M sodium phosphate buffer pH 7.4 into the culture medium. This solution was then replaced with fixative alone and stored at −20° C. for 30 minutes. Cultures were then defrosted for 5 minutes at 37° C. and then washed with 3 changes of the 0.1M sodium phosphate buffer. […]
Three primary antibodies were used in this study: (i) murine monoclonal antibodies against cyclin-dependent kinase inhibitor p27^kipl (clone SX53G8, IgG, Loto38, DAKO, diluted 1:200); (ii) murine monoclonal antibodies against cyclin-dependent kinase inhibitor p21^WAP/CIPI (clone SX118, IgG, Loto88, DAKO, diluted 1:200); and (iii) murine monoclonal antibodies against cyclin-dependent kinase inhibitor p16^INK4/CDKN2 (clone DCS-50, IgG, Lot 077H4821, Sigma, diluted 1:200). […] An estimate of positively stained cells to specific antigens was determined. […]

human blood peptidases = assay: Stability in human blood serum / attack by human blood peptidases; type: in vitro ADME
non-enzymic glycation [3] = system: non-enzymic glycation; parameters: key: 0 = zero effect; 10 = maximum effect; details: summary grade; footnote (2) literature; cited from earlier work
senescent MRC-5 cells = assay: Rejuvenation of senescent MRC-5 cells (morphology); type: cell-based, human; details: media supplemented with the compound, FIG. 4
Method: (§1) MRC -5 cells (fetal lung fibroblasts) were grown in Dulbecco's modification of Eagles' minimum essential medium (DMEM Gibco BRL Cat. No. 12800-017) containing 0.45% glucose, or MEM (Gibco BRL Cat. No. 612800-017) containing 0.1% glucose. Both media contained 10% fetal calf scrum (TRACE Biosciences Cat. No. 15-010-0500V) and Penicillin/Streptomycin 5000 IU, 5000 μg/ml (TRACE Biosciences Cat. No. 21-140-0100V). Cells were grown in […] flasks or in dishes (35 mm or 60 mm, Nunc) at 37° C. with 5% CO2. Cells were harvested with trypsin (TRACE Biosciences Cat. No. 21-163-0100V) and counted with a model ZF6 Coulter Counter. Cells were split in ratios of 1:2 or 1:4. Population doublings (PDs) were calculated from the ratio of the initial number of cells plated to the yield of cells after a period of time. This provides an accurate measure of cell growth, with the split ratios 1:2 and 1:4 corresponding to one and two passages respectively, which are broadly equivalent to population doublings. The media was changed every 5 days or when cells became confluent.
It was shown above that acetyl-carnosine markedly delayed the onset of senescence by increasing the lifespan of MRC-5 cells in culture. This was confirmed by rejuvenation experiments (FIG. 4). The morphology of cells grown in media supplemented with acetyl-carnosine was distinct from the controls. […]

MRC-5 cells [4] = assay: Effect of carnosine derivatives on cell growth / toxicity in MRC-5 cell cultures; type: cell-based, human; parameters: key to Effect on cell growth (score): (0) Toxic to cell growth; (10) Confluent cell growth; details: MRC-5 cells, scale 0 toxic to 10 confluent
Method: as §1
MRC-5 cells were used to observe the toxicity of a series of derivatives of carnosine on cell growth. Cell cultures were grown in DMEM media with 10% fetal calf serum and supplemented with the following carnosine analogues: carnosine ethyl ester, carnosine iso-propyl ester, carnosine n-butyl ester, carnosine n-hexyl ester, N-propyl carnosine, N-hexanoyl carnosine, N-trimethyl acetyl carnosine, N-acetyl carnosine methyl ester, N-acetyl carnosine ethyl ester and N-acetyl carnosine, […] Cells were also grown in DMEM supplemented with carnosine at 20 mM. […] Even at lower concentrations cell morphology was that of cells that have reached senescence i.e. broad flat cells with long process reaching out to other cells. Cell numbers were less than in the control flasks. […] As shown in FIG. 1 Acetyl-carnosine achieved a lifespan 5 PDs greater than the control and 6.7 PDs greater than carnosine over a 43 day period. […] In the early phase of the experiment growth rates were markedly greater than with the other compounds (FIG. 1).

non-enzymic glycation [5] = assay: Anti-glycation activity; type: biochemical

Residence time in the cell before degradation [1]: considerably longer residence time
Uptake relative to carnosine on a per cell basis (MRC-5 cells [2]; MRC-5 cells): 35%
Uptake of (3H) compound by MRC-5 cells (MRC-5 cells [2]; cells at passage 28): 0.16%
Resistance to attack by human blood peptidases (human blood peptidases): almost completely resistant
Stability in human blood serum (human blood peptidases; human blood serum): quite stable
SMILES: CC(=O)NCCC(=O)N[C@@H](Cc1cnc[nH]1)C(=O)O [N-acetyl carnosine]
Antioxidant effectiveness relative to the parent compound (Anti-oxidant activity): 60%
Number of cells greater than with carnosine (MRC-5 cells [2]; MRC-5 cells): 42%
Number of cells growing in supplemented media (MRC-5 cells [2]; MRC-5 cells): 3.4×10^6
Expression of p16 in the nucleus (p16^INK4/CDKN2): no expression of p16 in the nucleus
anti-glycation (2) (non-enzymic glycation [3]): 0
Morphology of cells in rejuvenation experiment (senescent MRC-5 cells): phenotype typical of younger cells
Effect on cell growth (score) (MRC-5 cells [4]; 0.5 mM): 7
Effect on cell growth (score) (MRC-5 cells [4]; 1 mM): 8
Effect on cell growth (score) (MRC-5 cells [4]; 2 mM): 9
Effect on cell growth (score) (MRC-5 cells [4]; 5 mM): 10
Effect on cell growth (score) (MRC-5 cells [4]; 10 mM): 9
Effect on cell growth (score) (MRC-5 cells [4]; 20 mM): 8
Effectiveness as an antiglycation agent (non-enzymic glycation [5]): ineffective
